Assay results: ChEMBL document CHEMBL1146017, “Dipeptide vinyl sultams: synthesis via the Wittig-Horner reaction and activity against papain, falcipain-2 and Plasmodium falciparum” (Bioorg Med Chem Lett, 2006)
Active and inactive are the calls of the source. The rule behind the calls is not given here.

Assays:
Plasmodium falciparum = experiment: Inhibition of Plasmodium falciparum W2; type: functional, organism-based
Falcipain 2 = biological target: T1, Falcipain 2 (Plasmodium falciparum, UniProt Q9N6S8); experiment: Inhibition of recombinant falcipain2
T1 sequence (Q9N6S8 whole entry): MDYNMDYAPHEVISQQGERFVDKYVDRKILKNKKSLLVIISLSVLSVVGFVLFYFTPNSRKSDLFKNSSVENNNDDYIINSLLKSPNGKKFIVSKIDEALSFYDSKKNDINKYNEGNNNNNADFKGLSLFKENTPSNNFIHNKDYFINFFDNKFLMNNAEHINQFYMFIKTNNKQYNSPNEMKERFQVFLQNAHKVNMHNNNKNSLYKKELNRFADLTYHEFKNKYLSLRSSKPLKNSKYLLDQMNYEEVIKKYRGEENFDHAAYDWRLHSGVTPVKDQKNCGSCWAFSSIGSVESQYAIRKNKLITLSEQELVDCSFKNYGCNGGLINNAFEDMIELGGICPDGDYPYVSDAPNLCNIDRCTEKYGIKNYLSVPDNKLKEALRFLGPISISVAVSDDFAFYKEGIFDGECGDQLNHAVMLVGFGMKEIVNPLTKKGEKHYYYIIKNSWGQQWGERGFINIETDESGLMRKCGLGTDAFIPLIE

Papain (Carica papaya) [1] = biological target: T2, Papain (Carica papaya) (UniProt P00784); experiment: Inhibition of papain at 50 uM
T2 sequence (whole entry): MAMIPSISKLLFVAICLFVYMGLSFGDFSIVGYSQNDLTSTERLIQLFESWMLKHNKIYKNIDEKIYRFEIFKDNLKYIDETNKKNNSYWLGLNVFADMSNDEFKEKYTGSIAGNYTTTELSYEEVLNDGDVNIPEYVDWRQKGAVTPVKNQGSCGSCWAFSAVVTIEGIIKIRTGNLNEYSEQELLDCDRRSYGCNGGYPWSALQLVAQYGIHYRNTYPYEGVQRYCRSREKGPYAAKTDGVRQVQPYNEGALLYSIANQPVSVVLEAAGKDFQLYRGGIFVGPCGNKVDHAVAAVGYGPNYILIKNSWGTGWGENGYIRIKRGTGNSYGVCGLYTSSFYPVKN

Papain (Carica papaya) [2] = biological target: T2, Papain (Carica papaya); experiment: Inhibition of papain upto 50 uM after 30 min

CC(C)C[C@H](NC(=O)N1CCOCC1)C(=O)N[C@H](/C=C1\CCCN(c2ccccc2)S1(=O)=O)Cc1ccccc1
IC50 (Plasmodium falciparum): > 10 µM | IC50 (Falcipain 2): 31.4 µM

CC(C)C[C@H](NC(=O)N1CCOCC1)C(=O)N[C@H](/C=C1\CCCN(Cc2ccccc2)S1(=O)=O)Cc1ccccc1
IC50 (Plasmodium falciparum): 7.8 µM | IC50 (Falcipain 2): 13.7 µM | inhibition (Papain (Carica papaya) [1]): inactive

CC(C)(C)OC(=O)N[C@H](/C=C1\CCCN(Cc2ccccc2)S1(=O)=O)Cc1ccccc1
inhibition (Papain (Carica papaya) [1]): inactive

CC(=O)N[C@@H](Cc1ccccc1)C(=O)N[C@H](/C=C1\CCCN(c2ccccc2)S1(=O)=O)Cc1ccccc1
IC50 (Plasmodium falciparum): > 10 µM | IC50 (Falcipain 2): 26.5 µM | inhibition (Papain (Carica papaya) [2]): inactive

CC(C)C[C@H](NC(=O)N1CCOCC1)C(=O)N[C@H](/C=C1\CCN(Cc2ccccc2)S1(=O)=O)Cc1ccccc1
IC50 (Plasmodium falciparum): > 10 µM | IC50 (Falcipain 2): 48.4 µM

CC(C)C[C@H](NC(=O)N1CCOCC1)C(=O)N[C@H](/C=C1/CCCN(Cc2ccccc2)S1(=O)=O)Cc1ccccc1
IC50 (Plasmodium falciparum): > 10 µM | IC50 (Falcipain 2): 23.6 µM | inhibition (Papain (Carica papaya) [1]): inactive
